Data as given in paper PMC11676996, “Inhibitory Effects of Sulfur Derivatives on Leishmania tarentolae Cell Viability and Secreted Acid Phosphatase In Vitro” (Microorganisms, 2024).

Test system: T1, secreted acid phosphatase (SAP)
T1 construct: native enzyme activity in cell-free culture supernatant
Test: pNPP phosphatase assay, compound added directly to control cell-free supernatant, dose-dependent
Format: biochemical, Leishmania tarentolae

`COc1cc(/C=N/NC(=S)SC)cc(OC)c1O` [ZZ1-04] showed an IC50 of 60 to 80 µM.
